In patent publication US7183252B2, “Indole peptidomimetics as thrombin receptor antagonists” (Ortho-McNeil Pharmaceutical, Inc., priority 1999, dated 2007):
Where two headings read alike, the source gives them in different places.

Experiments:
[1] = target: T1, thrombin receptor (PAR-1) (Homo sapiens, UniProt P25116); assay: In vitro thrombin receptor binding assay (CHRF membranes); settings: tritiated 721-40 radioligand, read-out: Bndg IC50 (Thrombin receptor binding)
T1 construct: CHRF membranes (Jones, Biochim. Biophys. Acta 1992, 1136, 272) are thawed from −70° C; endogenous in cells; host or cells: CHRF cell membranes
T1 sequence (P25116 22-425): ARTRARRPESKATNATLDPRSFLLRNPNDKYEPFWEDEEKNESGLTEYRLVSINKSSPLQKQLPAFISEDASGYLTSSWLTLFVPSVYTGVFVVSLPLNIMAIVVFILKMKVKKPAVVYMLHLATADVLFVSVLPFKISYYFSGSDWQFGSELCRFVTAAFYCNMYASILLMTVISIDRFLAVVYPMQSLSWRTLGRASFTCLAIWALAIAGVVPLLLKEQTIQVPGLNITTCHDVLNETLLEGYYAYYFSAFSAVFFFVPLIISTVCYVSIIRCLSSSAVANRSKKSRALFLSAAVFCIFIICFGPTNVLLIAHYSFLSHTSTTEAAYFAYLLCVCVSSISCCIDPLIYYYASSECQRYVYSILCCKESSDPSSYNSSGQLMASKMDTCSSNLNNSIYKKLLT
Protocol: In Vitro Thrombin Receptor Binding Assay
CHRF membranes (Jones, Biochim. Biophys. Acta 1992, 1136, 272) are thawed from −70° C., centrifuged at maximum speed for 5 min, washed twice with binding buffer (50 mM HEPES containing 5 mM MgCl2 and 0.1% BSA), and re-suspended in binding buffer (25 μg/[…]). 100 μL of membranes are added to the 24-Wallac plates and delivered to the Tomtech apparatus. In a typical experiment, 6 μL of samples (from a 125 μg/mL intermediary plate, 20% DMSO) and 44 μL buffer are delivered to the plates (final conc. of compounds is 3.7 μg/mL, 0.6% DMSO). Similarly, 6 μL 20% DMSO and 44 μL buffer are delivered to both column 1 (NSB) and column 12 (TB). 10 μL Ser-pFPhe-Har-Leu-Har-Lys-Tyr-NH2 (721–40; 500 μM in deionized water) is added to column 1. 50 μL tritiated 721–40 (specific activity 46 Ci/mmol) is added to all the wells. The plates are mixed well for 20 seconds, incubated for 30 min,and then harvested with 10 mM HEPES/138 mM NaCl using the Skatron harvester. The filters (GF/C Brandel FPXLR 296) are presoaked 3 h in 0.5% polyethylenimine in HEPES/0.1M N-acetylglucosamine) are set in saran wrap and dried for 3 min in the microwave, and placed in sample bags (Wallac 1450-432). 4.5 mL scintillation fluid (Wallac, Betaplate Scint 1205-440) is added. The bags are sealed, placed in filter cassettes (Wallac 1450-104), and analyzed on the microbeta counter.
(§1) Table 7 contains IC50 values (μM) of the compounds in a thrombin receptor binding assay, and IC50 values (μM) against platelet aggregation stimulated by thrombin.

gel-filtered platelets = assay: In vitro inhibition of thrombin-induced gel-filtered platelet aggregation; assay type: cell-based; settings: human gel-filtered platelets, agonist thrombin 50 μL of 1 unit/mL, read-out: Thrmb IC50 (Thrombin-induced aggregation of gel-filtered platelets)
Protocol: In Vitro Inhibition of Thrombin-Induced Gel-Filtered Platelet Aggregation Assay
The percentage of platelet aggregation is calculated as an increase in light transmission of compound-treated platelet concentrate vs. control-treated platelet concentrate. Human blood is obtained from drug free, normal donors in tubes containing 0.13M sodium citrate. Platelet rich plasma (PRP) is collected by centrifugation of whole blood at 200×g for 10 min at 25° C. The PRP (5 mL) is gel filtered through Sepharose 2B (bed volume 50 mL), and the platelet count is adjusted to 2×10^7 platelets per sample. The following constituents are added to a siliconized cuvette: concentrated platelet filtrate and Tyrode's buffer (0.14M NaCl, 0.0027M KCl, 0.012M NaHCO3, 0.76 mM Na2HPO4, 0.0055M glucose, 2 mg/mL BSA and 5.0 mM HEPES @ pH 7.4) in an amount equal to 350 μL 50 μL of 20 mM calcium and 50 μL of the test compound. Aggregation is monitored in a BIODATA aggregometer for the 3 min following the addition of agonist (thrombin 50 μL of 1 unit/mL).
as §1

Structure (SMILES) | IC50 [1] [nM] | IC50 (gel-filtered platelets; Platelet) [nM] | IC50 (gel-filtered platelets) [nM]
NCCNC(=O)CNC(=O)[C@H](Cc1cccc(F)c1)NC(=O)Nc1ccc2c(CN3CCCC3)cn(Cc3c(Cl)cccc3Cl)c2c1 [Compound 147] | 420 | 4400 | –
COC(=O)c1ccc(Cn2cc(CN3CCCCC3)c3ccc(NC(=O)N[C@@H](Cc4ccc(OC)cc4)C(=O)N[C@@H](CCCN=C(N)N)C(=O)NCC4CCCCC4)cc32)cc1 [Compound 10] | 4800 | > 10000 | –
C=CCOc1ccc(C[C@H](NC(=O)Nc2ccc3c(CN4CCCC4)cn(Cc4cccc(C)c4)c3c2)C(=O)N[C@@H](CCCNC(=N)N)C(=O)NCc2ccccc2)cc1 [Compound 34] | 9700 | 16300 | –
COc1ccc(C[C@H](NC(=O)Nc2ccc3c(CN4CCCC4)cn(Cc4ccc5ccccc5c4)c3c2)C(=O)N[C@@H](CCCNC(=N)N)C(=O)NCc2ccccc2)cc1 [Compound 15] | 4300 | 11800 | –
COc1ccc(C[C@H](NC(=O)Nc2ccc3c(CN4CCCC4)cn(Cc4ccc(F)c(F)c4)c3c2)C(=O)N[C@@H](CCCNC(=N)N)C(=O)NCc2ccccc2)cc1 [Compound 21] | 1100 | 3200 | –
Cc1ccccc1Cn1cc(CN2CCCC2)c2cccc(NC(=O)N[C@@H](Cc3ccc(F)c(F)c3)C(=O)N[C@@H](CCN)C(=O)NCc3ccccc3)c21 [Compound 168] | 64300 | 8300 | –
COc1ccc(C[C@H](NC(=O)Nc2ccc3c(CN4CCCC4)cn(Cc4ccc(F)cc4)c3c2)C(=O)N[C@@H](CCCNC(=N)N)C(=O)NCc2ccccc2)cc1 [Compound 1] | 600 | 830 | –
NCCC[C@H](NC(=O)[C@H](Cc1ccc(F)c(F)c1)NC(=O)Nc1ccc2c(CN3CCCC3)cn(Cc3c(Cl)cccc3Cl)c2c1)C(=O)NCCc1ccncc1 [Compound 109] | 610 | 840 | –
COC(=O)C(NC(=O)C(CCN)NC(=O)C(Cc1ccc(F)c(F)c1)NC(=O)Nc1ccc2c(CN3CCCC3)cn(Cc3c(Cl)cccc3Cl)c2c1)c1ccccc1 (centres unmarked) [Compound 160] | – | – | 600
Cn1cnc(CCNC(=O)[C@H](CCCN)NC(=O)[C@H](Cc2ccc(F)c(F)c2)NC(=O)Nc2ccc3c(CN4CCCC4)cn(Cc4c(Cl)cccc4Cl)c3c2)c1 [Compound 124] | 1200 | – | 440
Cc1ccccc1Cn1cc(CN2CCCC2)c2ccc(NC(=O)N[C@@H](Cc3ccc(F)c(F)c3)C(=O)N[C@@H](CCCNC(=N)N)C(=O)NCCc3ccccc3Cl)cc21 [Compound 64] | 230 | 2200 | –
CN(Cc1ccccc1)C(=O)[C@H](CCCN)NC(=O)[C@H](Cc1ccc(F)c(F)c1)NC(=O)Nc1ccc2c(CN3CCCC3)cn(Cc3c(Cl)cccc3Cl)c2c1 [Compound 111] | 1900 | 3200 | –
N=C(N)NCCC[C@H](NC(=O)[C@H](CC1CCCCC1)NC(=O)Nc1ccc2c(CN3CCCC3)cn(Cc3ccc(F)cc3)c2c1)C(=O)NCc1ccccc1 [Compound 25] | – | – | 37100
N=C(N)NCCC[C@H](NC(=O)[C@H](Cc1ccncc1)NC(=O)Nc1ccc2c(CN3CCCC3)cn(Cc3ccc(F)cc3)c2c1)C(=O)NCc1ccccc1 [Compound 24] | 4800 | 34800 | –
NCCC[C@H](NC(=O)[C@H](Cc1ccc(F)c(F)c1)NC(=O)Nc1ccc2c(CN3CCCC3)cn(Cc3c(Cl)cccc3Cl)c2c1)C(=O)NCc1ccccc1 [Compound 66] | 1100 | 240 | –
CN(Cc1cn(Cc2c(Cl)cccc2Cl)c2cc(NC(=O)N[C@@H](Cc3ccc(Cl)cc3)C(=O)N[C@@H](CCCN)C(=O)NCCc3ccccc3Cl)ccc12)C1CCCC1 [Compound 119] | 6200 | 3200 | –

Structure (SMILES) | IC50 [1] [nM] | IC50 (gel-filtered platelets; Platelet) [nM] | IC50 (gel-filtered platelets) [nM]
Nc1ccc(C[C@H](NC(=O)[C@H](Cc2ccc(F)c(F)c2)NC(=O)Nc2ccc3c(CN4CCCC4)cn(Cc4c(Cl)cccc4Cl)c3c2)C(=O)NCc2ccccc2)cc1 [Compound 106] | 3300 | 1100 | –
N=C(N)NCCC[C@H](NC(=O)[C@H](Cc1ccc(F)c(F)c1)NC(=O)Nc1ccc2c(CN3CCCC3)cn(Cc3c(Cl)cccc3Cl)c2c1)C(=O)NCc1ccc(F)cc1 [Compound 59] | 140 | 880 | –
COc1ccc(C[C@H](NC(=O)Nc2ccc3c(CN4CCCC4)cn(Cc4ccc(Cl)cc4)c3c2)C(=O)N[C@@H](CCCNC(=N)N)C(=O)NCc2ccccc2)cc1 [Compound 19] | 1600 | 3200 | –
N=C(N)NCCC[C@H](NC(=O)[C@H](Cc1cccc(F)c1)NC(=O)Nc1ccc2c(CN3CCCC3)cn(Cc3c(Cl)cccc3Cl)c2c1)C(=O)NCc1ccccc1 [Compound 47] | 1200 | 880 | –
C[C@@H](CNC(=O)[C@H](CCCNC(=N)N)NC(=O)[C@H](Cc1ccc(F)c(F)c1)NC(=O)Nc1ccc2c(CN3CCCC3)cn(Cc3c(Cl)cccc3Cl)c2c1)c1ccccc1 [Compound 83] | 680 | 430 | –
NCCC[C@H](NC(=O)[C@H](Cc1cccc(F)c1)NC(=O)Nc1ccc2c(CN3CCCC3)cn(Cc3c(Cl)cccc3Cl)c2c1)C(=O)NC1Cc2ccccc2C1 [Compound 96] | 2800 | 1000 | –
COc1ccc(C[C@H](NC(=O)Nc2ccc3c(c2)c(CN2CCCCC2)cn3Cc2ccc(F)cc2)C(=O)N[C@@H](CCCNC(=N)N)C(=O)NCc2ccccc2)cc1 [Compound 162] | 5300 | 13000 | –
N=C(N)NCCC[C@H](NC(=O)[C@H](Cc1cscn1)NC(=O)Nc1ccc2c(CN3CCCC3)cn(Cc3c(Cl)cccc3Cl)c2c1)C(=O)NCc1ccccc1 [Compound 53] | 8800 | 1000 | –
NCC[C@H](NC(=O)[C@H](Cc1ccc(F)c(F)c1)NC(=O)Nc1ccc2c(CN3CCCC3)cn(Cc3c(Cl)cccc3Cl)c2c1)C(=O)NCc1ccccc1 [Compound 102, Benzenepropanamide, N-[(1S)-3-amino-1-[[(phenylmethyl)amino]carbonyl]propyl]-α-[[[[1-[(2,6-dichlorophenyl)methyl]-3-(1-pyrrolidinylmethyl)-1H-indol-6-yl]amino]carbonyl]amino]-3,4-difluoro-, (αS)-] | 500 | 160 | –
NCCNC(=O)[C@H](CSC(c1ccccc1)(c1ccccc1)c1ccccc1)NC(=O)[C@H](Cc1ccc(F)c(F)c1)NC(=O)Nc1ccc2c(CN3CCCC3)cn(Cc3c(Cl)cccc3Cl)c2c1 [Compound 151] | 450 | – | 2900
NCCNC(=O)[C@H](Cc1cccs1)NC(=O)[C@H](Cc1ccc(Cl)cc1)NC(=O)c1ccc2c(CN3CCCC3)cn(Cc3c(Cl)cccc3Cl)c2c1 [Compound 177] | 620 | 4400 | –
COc1ccc(C[C@H](NC(=O)Nc2ccc3c(CN4CCCC4)cn(Cc4ccc(OC)cc4)c3c2)C(=O)N[C@@H](CCCNC(=N)N)C(=O)NCc2ccccc2)cc1 [Compound 20] | 17100 | 26600 | –
Cc1ccccc1Cn1cc(CN2CCCC2)c2ccc(NC(=O)N[C@H](C(=O)N[C@@H](CCCNC(=N)N)C(=O)NCc3ccccc3)c3ccccc3)cc21 [Compound 29] | 8400 | > 10000 | –
NCCC[C@H](NC(=O)[C@H](Cc1ccc(F)c(F)c1)NC(=O)Nc1ccc2c(CN3CCCC3)cn(Cc3c(Cl)cccc3Cl)c2c1)C(=O)NCc1ccccn1 [Compound 117] | 1000 | 4100 | –
NCCC(NC(=O)C(Cc1ccc(F)c(F)c1)NC(=O)Nc1ccc2c(CN3CCCC3)cn(Cc3c(Cl)cccc3Cl)c2c1)C(=O)NC(CO)c1ccccc1 (centres unmarked) [Compound 161] | – | – | 520
